pIC50: −log10 of the molar value.
Biological target: T1, Tyrosine-protein phosphatase non-receptor type 11 (Homo sapiens, UniProt Q06124)
T1 sequence (Q06124 whole entry): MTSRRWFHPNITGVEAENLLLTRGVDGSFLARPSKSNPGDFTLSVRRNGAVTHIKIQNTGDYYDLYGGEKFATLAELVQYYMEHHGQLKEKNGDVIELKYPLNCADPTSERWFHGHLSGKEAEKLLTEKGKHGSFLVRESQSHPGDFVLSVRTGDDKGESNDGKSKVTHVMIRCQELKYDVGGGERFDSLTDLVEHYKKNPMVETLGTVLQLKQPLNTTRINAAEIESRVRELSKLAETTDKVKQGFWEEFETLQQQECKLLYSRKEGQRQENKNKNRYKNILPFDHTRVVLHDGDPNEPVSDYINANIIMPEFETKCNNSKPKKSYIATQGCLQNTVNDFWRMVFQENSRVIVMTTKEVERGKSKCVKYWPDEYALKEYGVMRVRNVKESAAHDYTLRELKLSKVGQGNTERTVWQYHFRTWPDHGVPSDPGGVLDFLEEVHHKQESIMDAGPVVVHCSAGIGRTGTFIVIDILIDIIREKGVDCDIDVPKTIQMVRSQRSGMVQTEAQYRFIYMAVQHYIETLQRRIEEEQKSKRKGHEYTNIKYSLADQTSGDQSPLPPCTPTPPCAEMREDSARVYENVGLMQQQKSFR
Experiment: pNPP assay

Structure (SMILES)	pIC50
[O]=[V]([OH])([OH])[OH]	4.46
O=C(Nc1ccc(-c2ccc(NC(=O)c3ccc(F)cc3)cn2)cc1)c1ccc(F)cc1 [4-fluoro-N-(6-(4-(4-fluorobenzamido)phenyl)pyridin-3-yl)benzamide (29)]	4.70

Reference: BindingDB's records for doi:10.1016/j.bmcl.2014.03.015 (Jiangnan University, 2014)
